Test [1] has as its system mir-17, mir-18a, mir-18b, mir-20a and mir-106a. Briefly: Genome-wide miRNA array profiling of LNCaP-104S cells upon CDX treatment. As to conditions: CDX (5 μM) treatment and androgen blockade (CSFBS), vs untreated LNCaP-104S. In kind it is cell-based. From the text:
We used genome-wide miRNA array (1113 unique primers System Biosciences) profiling approach to dentify specific miRNAs that compensate for androgen ablation. Androgen-dependent (AD) subline of LNCaP cells LNCaP-104S (-104S) and its androgen independent (AI) derivative LNCaP-104R1 (-104R1) were used for monitoring differential expression of miRNAs upon treatment with casodex (CDX). LNCaP-104S cells are CDX-sensitive, whereas LNCaP-104R1 cells are not despite these cells express androgen receptor (AR) at a basal level higher than LNCaP-104S cells. LNCaP-104S cells require DHT for maintaining their AD status but when treated with CDX for 3 weeks in CSFBS (charcoal-stripped FBS), CDX insensitive colonies develop that are independent of androgen (CDXR). We profiled miRNA expression in −104S cells untreated and at 1 wk and 3 wks of treatment with CDX (5 μM) and CSFBS (Table 1). We also compared miRNA expression in untreated −104R1 cells. The ΔΔCT values were obtained for each sample (treatment condition) using LNCaP-104S untreated as the control.

Test [2] relates to Frabin (FGD4). Briefly: Western blotting of Frabin in extracts of CDX treated LNCaP-104S cells. In kind it is cell-based. The settings on record: western blot. The text has this: FIG. 2. Expression of FGD4 in untreated LNCap-104R1, LNCaP-104S and LNCaP-104S cells treated with CDX and androgen withdrawal. FIG. 2 A: Western blot of the whole cell extracts. FIG. 2 B: Densitometric analysis of the expression. Data represents the average of 3 separate analyses.
Identification of targets regulated by our candidate miRNAs by MiRDB and TargetScan database search reveled a protein Frabin (FGD4), a GEF that is potentially regulated by mir-17, -21a and -106a and received higher target scores in both searches.
In general terms: Immunoblotting shows a protein as a band on a membrane.

In test [3] the test system is LNCaP-104R1 cells. As to conditions: androgen independent LNCaP-104R1; cited from earlier work.
Test [4] has as its system LNCaP-104S cells. The settings on record: androgen-dependent LNCaP-104S; cited from earlier work.

Structures are written as SMILES.

In the case of `CC(O)(CS(=O)(=O)c1ccc(F)cc1)C(=O)Nc1ccc(C#N)c(C(F)(F)F)c1` (stereo not shown) [CDX], in test [1], the “down regulation of mir-17, mir-18a, mir-18b, mir-20a and mir-106a” value is listed as 9-10 fold. Also, the “increase in expression of Frabin” value in test [2] is over 2.0 fold. For the same molecule, the CDX sensitivity entry is recorded as “are not” in test [3] and “CDX-sensitive” in test [4].

Values taken from patent US20150238519A1, “THERAPY FOR DRUG RESISTANT CANCER” (University of Central Florida Research Foundation, Inc., priority 2014, published 2015).
